Experimental data: ChEMBL document CHEMBL5113528 (J Med Chem, 2022)

Experiments:
[1] = target: T1, N-terminal Xaa-Pro-Lys N-methyltransferase 1 (Homo sapiens, UniProt Q9BV86); assay: Inhibition of full length His-NTMT1 (1 to 222 residues) (unknown origin) expressed in Escherichia coli BL21 (DE3) assessed as SAH production by Mtase-glo luminescence assay
T1 sequence (Q9BV86 whole entry): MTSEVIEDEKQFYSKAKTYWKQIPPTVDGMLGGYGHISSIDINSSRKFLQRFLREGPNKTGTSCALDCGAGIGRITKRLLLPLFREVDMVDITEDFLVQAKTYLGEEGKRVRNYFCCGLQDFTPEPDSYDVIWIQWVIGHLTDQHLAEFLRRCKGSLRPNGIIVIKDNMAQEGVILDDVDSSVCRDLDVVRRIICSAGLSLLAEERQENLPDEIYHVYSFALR

[2] = target: T1, N-terminal Xaa-Pro-Lys N-methyltransferase 1; assay: Inhibition of full length NTMT1 (1 to 222 residues) (unknown origin) expressed in Escherichia coli BL21 (DE3) using GPKRIA as substrate preincubated for 10 mins followed by substrate addition measured after 15 mins by microplate reader method
[3] = target: T1, N-terminal Xaa-Pro-Lys N-methyltransferase 1
Description: Binding affinity to NTMT1 (unknown origin) assessed as dissociation constant in presence of SAM by isothermal titration calorimetry analysis

[4] = target: T1, N-terminal Xaa-Pro-Lys N-methyltransferase 1; remark: listed apart in the source
Description: Binding affinity to NTMT1 (unknown origin)assessed as dissociation constant in absence of SAM by isothermal titration calorimetry analysis

Row | Structure (SMILES) | IC50 [2] | other results
1 | C/N=c1\nc(-c2ccccc2)n(-c2ccccc2)s1 |  | IC50 [1]: 460 nM
2 | CC(C)OC(=O)NC(C)(C)c1csc(-c2ccc(F)cc2)n1 | > 100000 nM | 
3 | CC(C)(NC(=O)OC1CCCCC1)c1csc(-c2ccc(F)cc2)n1 | > 100000 nM | 
4 | CC(C)(NC(=O)O[C@@H]1CN2CCC1CC2)c1csc(-c2ccc(F)cc2)n1 |  | Kd [3]: 32.5 nM; Kd [4]: 160 nM
5 | CC(C)(NC(=O)O[C@@H]1CN2CCC1CC2)c1csc(-c2ccc(CCC(=O)O)cc2)n1 | > 100000 nM | 
6 | CC(C)(NC(=O)O[C@@H]1CN2CCC1CC2)c1csc(-c2ccc(/C=C/C(=O)O)cc2)n1 | > 100000 nM | 
7 | Cc1ccc(-c2nc(C(C)(C)NC(=O)O[C@@H]3CN4CCC3CC4)cs2)cc1 | 1700 nM | 
8 | Cc1nc(C(C)(C)NC(=O)O[C@@H]2CN3CCC2CC3)cs1 | > 100000 nM | 
9 | CC(C)(NC(=O)O[C@@H]1CN2CCC1CC2)c1csc(-c2ccccc2)n1 | 2700 nM | 
10 | CC(C)(NC(=O)O[C@@H]1CN2CCC1CC2)c1csc(-c2ccc(Br)cc2)n1 | 1500 nM | 
